Measured values taken from patent US4181797A, “1-N-(ω-amino-α-hydroxyalkanoyl) derivatives of 4'-deoxy-6'-N-methylkanamycin A” (Bristol-Myers Company, priority 1978, dated 1980).
Values after ≈ are worked out from the molar mass of the structure shown. Read-outs that look alike come from different tables or passages of the source.

Tests used:
[1] = test system: microorganisms containing aminoglycoside-inactivating enzymes; conditions: background statement; cited from earlier work
S. aureus Smith = test: MIC in Mueller-Hinton agar, kanamycin-sensitive strain; assay type: cell-based; conditions: Staphylococcus aureus; S. aureus Smith; enzyme produced: none; Mueller-Hinton agar; read-out: MIC
Method: (§1) The Minimum Inhibitory Concentrations (MIC's) of BB-K311, amikacin and kanamycin A were determined in Mueller-Hinton agar against a number of kanamycin-sensitive and kanamycin-resistant strains of organisms.

E. coli A9632 = test: as above; assay type: cell-based; conditions: Escherichia coli; E. coli A9632; enzyme produced: none; Mueller-Hinton agar; read-out: MIC
Method: as §1

S. marcescens A20019 = test: as above; assay type: cell-based; conditions: Serratia marcescens; S. marcescens A20019; enzyme produced: none; Mueller-Hinton agar; read-out: MIC
Method: as §1

P. mirabilis A9900 = test: as above; assay type: cell-based; conditions: Proteus mirabilis; P. mirabilis A9900; enzyme produced: none; Mueller-Hinton agar; read-out: MIC
Method: as §1

P. Morganii A20031 = test: as above; assay type: cell-based; conditions: Morganella morganii; P. Morganii A20031; enzyme produced: none; Mueller-Hinton agar; read-out: MIC
Method: as §1

E. cloacae A20464 = test: as above; assay type: cell-based; conditions: Enterobacter cloacae; E. cloacae A20464; enzyme produced: none; Mueller-Hinton agar; read-out: MIC
Method: as §1

B. brevis ATCC8185 = test: as above; assay type: cell-based; conditions: Brevibacillus brevis; B. brevis ATCC8185; enzyme produced: none; Mueller-Hinton agar; read-out: MIC
Method: as §1

P. vulgaris A9526 = test: as above; assay type: cell-based; conditions: Proteus vulgaris; P. vulgaris A9526; enzyme produced: none; Mueller-Hinton agar; read-out: MIC
Method: as §1

P. stuartii A20615 = test: as above; assay type: cell-based; conditions: Providencia stuartii; P. stuartii A20615; enzyme produced: none; Mueller-Hinton agar; read-out: MIC
Method: as §1

K. pneumoniae A15130 = test: as above; assay type: cell-based; conditions: Klebsiella pneumoniae; K. pneumoniae A15130; enzyme produced: none; Mueller-Hinton agar; read-out: MIC
Method: as §1

[2] = test system: aminoglycoside-4'-adenylyltransferase [ANT(4')]; conditions: background statement; cited from earlier work
S. marcescens A21226 = test: MIC in Mueller-Hinton agar, AAC(6')-producing strain; assay type: cell-based; conditions: Serratia marcescens; S. marcescens A21226; AAC(6')-producing; Mueller-Hinton agar; read-out: MIC
Method: as §1

P. aeruginosa GN4925 = test: as above; assay type: cell-based; conditions: Pseudomonas aeruginosa; P. aeruginosa GN4925; AAC(6')-producing; Mueller-Hinton agar; read-out: MIC
Method: as §1

E. coli A2128 = test: as above; assay type: cell-based; conditions: Escherichia coli; E. coli A2128; AAC(6')-producing; Mueller-Hinton agar; read-out: MIC
Method: as §1

S. marcescens A22382 = test: as above; assay type: cell-based; conditions: Serratia marcescens; S. marcescens A22382; AAC(6')-producing; Mueller-Hinton agar; read-out: MIC
Method: as §1

S. aureus A22421 = test: as above; assay type: cell-based; conditions: Staphylococcus aureus; S. aureus A22421; AAC(6')-producing; Mueller-Hinton agar; read-out: MIC
Method: as §1

S. epidermidis A22211 = test: as above; assay type: cell-based; conditions: Staphylococcus epidermidis; S. epidermidis A22211; AAC(6')-producing; Mueller-Hinton agar; read-out: MIC
Method: as §1

S. marcescens A22288 = test: as above; assay type: cell-based; conditions: Serratia marcescens; S. marcescens A22288; AAC(6')-producing; Mueller-Hinton agar; read-out: MIC
Method: as §1

E. cloacae HM-43 = test: as above; assay type: cell-based; conditions: Enterobacter cloacae, HM43; E. cloacae HM-43; AAC(6')-producing; Mueller-Hinton agar; read-out: MIC
Method: as §1

P. aeruginosa GN315 = test: as above; assay type: cell-based; conditions: Pseudomonas aeruginosa; P. aeruginosa GN315; AAC(6')-producing; Mueller-Hinton agar; read-out: MIC
Method: as §1

S. epidermidis A22152 = test: as above; assay type: cell-based; conditions: Staphylococcus epidermidis
Method: as §1

S. aureus A22153 = test: as above; assay type: cell-based; conditions: Staphylococcus aureus; S. aureus A22153; AAC(6')-producing; Mueller-Hinton agar; read-out: MIC
Method: as §1

S. marcescens A21235 = test: as above; assay type: cell-based; conditions: Serratia marcescens; S. marcescens A21235; AAC(6')-producing; Mueller-Hinton agar; read-out: MIC
Method: as §1

P. rettgeri HM-56 = test: as above; assay type: cell-based; conditions: Providencia rettgeri, HM56; P. rettgeri HM-56; AAC(6')-producing; Mueller-Hinton agar; read-out: MIC
Method: as §1

E. cloacae A20364 = test: MIC in Mueller-Hinton agar, APH(3')-I producer; assay type: cell-based; conditions: Enterobacter cloacae; E. cloacae A20364; enzyme produced: APH(3')-I; Mueller-Hinton agar; read-out: MIC
Method: as §1

E. coli A20363 = test: MIC in Mueller-Hinton agar, APH(3')-I producer; assay type: cell-based; conditions: Escherichia coli; E. coli A20363; enzyme produced: APH(3')-I; Mueller-Hinton agar; read-out: MIC
Method: as §1

E. cloacae A21006 = test: MIC in Mueller-Hinton agar, APH(3')-II producer; assay type: cell-based; conditions: Enterobacter cloacae; E. cloacae A21006; enzyme produced: APH(3')-II; Mueller-Hinton agar; read-out: MIC
Method: as §1

E. coli A20107 = test: MIC in Mueller-Hinton agar, APH(3')-II producer; assay type: cell-based; conditions: Escherichia coli; E. coli A20107; enzyme produced: APH(3')-II; Mueller-Hinton agar; read-out: MIC
Method: as §1

B. brevis IFO 12334 = test: MIC in Mueller-Hinton agar, ANT(4')-producing strain; assay type: cell-based; conditions: Brevibacillus brevis, IFO12334; B. brevis IFO 12334; ANT(4')-producing; Mueller-Hinton agar; read-out: MIC
Method: as §1

S. epidermidis A22033 = test: as above; assay type: cell-based; conditions: Staphylococcus epidermidis; S. epidermidis A22033; ANT(4')-producing; Mueller-Hinton agar; read-out: MIC
Method: as §1

S. aureus A22054 = test: as above; assay type: cell-based; conditions: Staphylococcus aureus; S. aureus A22054; ANT(4')-producing; Mueller-Hinton agar; read-out: MIC
Method: as §1

E. coli A20895 = test: MIC in Mueller-Hinton agar, AAC(3)-I producer; assay type: cell-based; conditions: Escherichia coli; E. coli A20895; enzyme produced: AAC(3)-I; Mueller-Hinton agar; read-out: MIC
Method: as §1

E. coli A20732 = test: MIC in Mueller-Hinton agar, ANT(2") producer; assay type: cell-based; conditions: Escherichia coli; E. coli A20732; enzyme produced: ANT(2"); Mueller-Hinton agar; read-out: MIC
Method: as §1

[3] = test system: aminoglycoside-6'-acetyltransferase [AAC(6')]; conditions: background statement; cited from earlier work
[4] = test system: AAC(6')-producing and ANT(4')-producing strains; test: Average activity relative to amikacin, Table 2 strains; assay type: cell-based; conditions: AAC(6')-producing and ANT(4')-producing strains of Table 2
Method: as §1

[5] = test system: aminoglycoside-sensitive and aminoglycoside-resistant strains; test: Antibacterial spectrum, Table 1 strains; assay type: cell-based; conditions: strains of Table 1, compared with amikacin
Method: as §1

Structure (SMILES)	MIC (S. aureus Smith)	MIC (E. coli A9632)	MIC (S. marcescens A20019)	MIC (P. mirabilis A9900)	MIC (P. Morganii A20031)	MIC (E. cloacae A20464)	MIC (B. brevis ATCC8185)	MIC (P. vulgaris A9526)	MIC (P. stuartii A20615)	MIC (K. pneumoniae A15130)	MIC (S. marcescens A21226)	MIC (P. aeruginosa GN4925)	MIC (E. coli A2128)	MIC (S. marcescens A22382)	MIC (S. aureus A22421)	MIC (S. epidermidis A22211)	MIC (S. marcescens A22288)	MIC (E. cloacae HM-43)	MIC (P. aeruginosa GN315)	MIC (S. aureus A22153)	also measured
NCC[C@H](O)C(=O)N[C@@H]1C[C@H](N)[C@@H](O[C@H]2O[C@H](CN)[C@@H](O)[C@H](O)[C@H]2O)[C@H](O)[C@H]1O[C@H]1O[C@H](CO)[C@@H](O)[C@H](N)[C@H]1O [Amikacin, 1-N-[L-(-)-γ-amino-α-hydroxybutyryl]kanamycin A]	0.8 µg/mL (≈ 1.37 µM)	0.8 µg/mL (≈ 1.37 µM)	1.6 µg/mL (≈ 2.73 µM)	1.6 µg/mL (≈ 2.73 µM)	1.6 µg/mL (≈ 2.73 µM)	3.1 µg/mL (≈ 5.29 µM)	0.8 µg/mL (≈ 1.37 µM)	0.8 µg/mL (≈ 1.37 µM)	1.6 µg/mL (≈ 2.73 µM)	1.6 µg/mL (≈ 2.73 µM)	6.3 µg/mL (≈ 10.8 µM)	12.5 µg/mL (≈ 21.3 µM)	3.1 µg/mL (≈ 5.29 µM)	12.5 µg/mL (≈ 21.3 µM)	12.5 µg/mL (≈ 21.3 µM)	12.5 µg/mL (≈ 21.3 µM)	6.3 µg/mL (≈ 10.8 µM)	> 100 µg/mL	50 µg/mL (≈ 85.4 µM)	12.5 µg/mL (≈ 21.3 µM)	effectiveness against enzyme-containing microorganisms [1]: effective against a wide variety of microorganisms containing aminoglycoside-inactivating enzymes; susceptibility to ANT(4') [2]: still susceptible; MIC (S. epidermidis A22152; A22152): 3.1 µg/mL (≈ 5.29 µM); MIC (S. marcescens A21235): 25 µg/mL (≈ 42.7 µM); MIC (P. rettgeri HM-56): > 100 µg/mL; MIC (E. cloacae A20364): 3.1 µg/mL (≈ 5.29 µM); MIC (E. coli A20363): 1.6 µg/mL (≈ 2.73 µM); MIC (E. cloacae A21006): 1.6 µg/mL (≈ 2.73 µM); MIC (E. coli A20107): 1.6 µg/mL (≈ 2.73 µM); MIC (B. brevis IFO 12334): 6.3 µg/mL (≈ 10.8 µM); MIC (S. epidermidis A22033): 6.3 µg/mL (≈ 10.8 µM); MIC (S. aureus A22054): 6.3 µg/mL (≈ 10.8 µM); MIC (E. coli A20895): 0.8 µg/mL (≈ 1.37 µM); MIC (E. coli A20732): 0.8 µg/mL (≈ 1.37 µM); susceptibility to AAC(6') [3]: still susceptible
CNC[C@@H]1C[C@H](O)[C@@H](O)[C@@H](O[C@H]2[C@H](O)[C@@H](O[C@H]3O[C@H](CO)[C@@H](O)[C@H](N)[C@H]3O)[C@H](NC(=O)[C@@H](O)CCN)C[C@@H]2N)O1 [BB-K311, 1-N-[L-(-)-γ-amino-α-hydroxybutyryl]-4'-deoxy-6'-N-methylkanamycin A]	1.6 µg/mL (≈ 2.74 µM)	1.6 µg/mL (≈ 2.74 µM)	1.6 µg/mL (≈ 2.74 µM)	6.3 µg/mL (≈ 10.8 µM)	6.3 µg/mL (≈ 10.8 µM)	3.1 µg/mL (≈ 5.31 µM)	1.6 µg/mL (≈ 2.74 µM)	0.8 µg/mL (≈ 1.37 µM)	3.1 µg/mL (≈ 5.31 µM)	1.6 µg/mL (≈ 2.74 µM)	3.1 µg/mL (≈ 5.31 µM)	12.5 µg/mL (≈ 21.4 µM)	3.1 µg/mL (≈ 5.31 µM)	6.3 µg/mL (≈ 10.8 µM)	12.5 µg/mL (≈ 21.4 µM)	12.5 µg/mL (≈ 21.4 µM)	3.1 µg/mL (≈ 5.31 µM)	3.1 µg/mL (≈ 5.31 µM)	25 µg/mL (≈ 42.8 µM)	12.5 µg/mL (≈ 21.4 µM)	MIC (S. epidermidis A22152; S. epidermidis A22152, AAC(6')-producing, Mueller-Hinton agar, read-out: MIC): 3.1 µg/mL (≈ 5.31 µM); MIC (S. marcescens A21235): 12.5 µg/mL (≈ 21.4 µM); MIC (P. rettgeri HM-56): 12.5 µg/mL (≈ 21.4 µM); activity relative to amikacin, on the average [4]: twice as active as amikacin; antibacterial spectrum [5]: antibacterial spectrum similar to amikacin; MIC (E. cloacae A20364): 6.3 µg/mL (≈ 10.8 µM); MIC (E. coli A20363): 3.1 µg/mL (≈ 5.31 µM); MIC (E. cloacae A21006): 3.1 µg/mL (≈ 5.31 µM); MIC (E. coli A20107): 6.3 µg/mL (≈ 10.8 µM); MIC (B. brevis IFO 12334): 3.1 µg/mL (≈ 5.31 µM); MIC (S. epidermidis A22033): 1.6 µg/mL (≈ 2.74 µM); MIC (S. aureus A22054): 3.1 µg/mL (≈ 5.31 µM); MIC (E. coli A20895): 3.1 µg/mL (≈ 5.31 µM); MIC (E. coli A20732): 1.6 µg/mL (≈ 2.74 µM)
